From PMC9231222 (Viruses, 2022)
“Also recorded” adds a separate entry of the source.

Legend:
[1] = Cytotoxicity assay (MTT) in mock-infected MDBK cells; assay type: cell-based; settings: cattle (Bos taurus); concentration reducing viability of mock-infected MDBK cells by 50%, MTT method
[2] = tested on: BVDV; assay: Antiviral assay: inhibition of BVDV-induced cytopathogenicity in MDBK cells; assay type: cell-based; settings: Bovine viral diarrhea virus isolates and strains, in Bos taurus, 72 h, read-out: BVDV EC50
[3] = tested on: BVDV; assay: Time of drug addition assay in BVDV-infected MDBK cells (plaque reduction titer); assay type: cell-based, Bovine Viral Diarrhoea Virus (BVDV); settings: along the viral replication cycle (between 2 and 14 h post-infection)
[4] = tested on: BVDV; assay type: cell-based, Bovine Viral Diarrhoea Virus (BVDV); settings: BVDV incubated with compound at 4 °C for 1 h, then used to infect cells

Row | SMILES | CC50 [1] [µM] | EC50 [2] [µM] | melting point [°C] | antiviral activity, time of drug addition [3] | virucidal activity [4]
1 | COc1cc(C(=O)Nc2ccc(-c3nc4ccccc4[nH]3)cc2)cc(OC)c1OC [Compound 1c, N-(4-(1H-Benzo[d]imidazol-2-yl)phenyl)-3,4,5-trimethoxybenzamide] | 28.5 | 2.2 | – | – | –
2 | O=C(Nc1ccc(-c2nc3ccccc3[nH]2)cc1)c1ccc([N+](=O)[O-])cc1 [Compound 1d, N-(4-(1H-Benzo[d]imidazol-2-yl)phenyl)-4-nitrobenzamide] | > 100 | > 100 | > 300 | – | –
3 | O=C(Nc1ccc(-c2nc3ccccc3[nH]2)cc1)c1ccc(Cl)cc1 [Compound 1e, N-(4-(1H-Benzo[d]imidazol-2-yl)phenyl)-4-chlorobenzamide] | > 100 | > 100 | 170.5 | – | –
4 | COc1cc(C(=O)Nc2ccc(-c3nc4cc(Cl)ccc4[nH]3)cc2)cc(OC)c1OC [Compound 2c, N-(4-(5-Chloro-1H-benzo[d]imidazol-2-yl)phenyl)-3,4,5-trimethoxybenzamide] | 45 | 0.09 | 286 to 287 | consistent antiviral activity along the viral replication cycle; also recorded: detectable activity | –
5 | O=C(Nc1ccc(-c2nc3cc(Cl)ccc3[nH]2)cc1)c1ccc([N+](=O)[O-])cc1 [Compound 2d, N-(4-(5-Chloro-1H-benzo[d]imidazol-2-yl)phenyl)-4-nitrobenzamide] | > 100 | 1.9 | > 300 | – | –
6 | O=C(Nc1ccc(-c2nc3cc(Cl)ccc3[nH]2)cc1)c1ccc(Cl)cc1 [Compound 2e, N-(4-(5-Chloro-1H-benzo[d]imidazol-2-yl)phenyl)-4-chlorobenzamide] | > 100 | > 100 | > 300 | – | –
7 | COc1cc(C(=O)Nc2ccc(-c3nc4cc(Cl)c(Cl)cc4[nH]3)cc2)cc(OC)c1OC [Compound 3c, N-(4-(5,6-Dichloro-1H-benzo[d]imidazol-2-yl)phenyl)-3,4,5-trimethoxybenzamide] | 28 | 1.3 | 150.6 | – | –
8 | O=C(Nc1ccc(-c2nc3cc(Cl)c(Cl)cc3[nH]2)cc1)c1ccc([N+](=O)[O-])cc1 [Compound 3d, N-(4-(5,6-Dichloro-1H-benzo[d]imidazol-2-yl)phenyl)-4-nitrobenzamide] | > 100 | 53 | > 300 | – | –
9 | O=C(Nc1ccc(-c2nc3cc(Cl)c(Cl)cc3[nH]2)cc1)c1ccc(Cl)cc1 [Compound 3e, N-(4-(5,6-Dichloro-1H-benzo[d]imidazol-2-yl)phenyl)-4-chlorobenzamide] | 60 | > 60 | 161 to 162 | – | –
10 | COc1cc(C(=O)Nc2ccc(-c3nc4cc(F)ccc4[nH]3)cc2)cc(OC)c1OC [Compound 4c, N-(4-(5-Fluoro-1H-benzo[d]imidazol-2-yl)phenyl)-3,4,5-trimethoxybenzamide] | > 100 | 41 | 171.8 | – | –
11 | O=C(Nc1ccc(-c2nc3cc(F)ccc3[nH]2)cc1)c1ccc([N+](=O)[O-])cc1 [Compound 4d, N-(4-(5-Fluoro-1H-benzo[d]imidazol-2-yl)phenyl)-4-nitrobenzamide] | > 100 | 7.9 | > 300 | – | –
12 | O=C(Nc1ccc(-c2nc3cc(F)ccc3[nH]2)cc1)c1ccc(Cl)cc1 [Compound 4e, N-(4-(5-Fluoro-1H-benzo[d]imidazol-2-yl)phenyl)-4-chlorobenzamide] | > 100 | > 100 | 138.6 | – | –
13 | COc1cc(C(=O)Nc2ccc(-c3nc4cc(F)c(F)cc4[nH]3)cc2)cc(OC)c1OC [Compound 5c, N-(4-(5,6-Difluoro-1H-benzo[d]imidazol-2-yl)phenyl)-3,4,5-trimethoxybenzamide] | > 100 | 1.4 | 285 to 287 | – | –
14 | O=C(Nc1ccc(-c2nc3cc(F)c(F)cc3[nH]2)cc1)c1ccc([N+](=O)[O-])cc1 [Compound 5d, N-(4-(5,6-Difluoro-1H-benzo[d]imidazol-2-yl)phenyl)-4-nitrobenzamide] | > 100 | 3.6 | > 300 | – | –
15 | O=C(Nc1ccc(-c2nc3cc(F)c(F)cc3[nH]2)cc1)c1ccc(Cl)cc1 [Compound 5e, N-(4-(5,6-Difluoro-1H-benzo[d]imidazol-2-yl)phenyl)-4-chlorobenzamide] | > 100 | > 100 | > 300 | – | –
16 | COc1cc(C(=O)Nc2ccc(-c3nc4cc(C)ccc4[nH]3)cc2)cc(OC)c1OC [Compound 6c, N-(4-(5-Methyl-1H-benzo[d]imidazol-2-yl)phenyl)-3,4,5-trimethoxybenzamide] | > 100 | 0.23 | – | – | almost comparable to the untreated but infected ones
17 | Cc1ccc2nc(-c3ccc(NC(=O)c4ccc([N+](=O)[O-])cc4)cc3)[nH]c2c1 [Compound 6d, N-(4-(5-Methyl-1H-benzo[d]imidazol-2-yl)phenyl)-4-nitrobenzamide] | > 100 | > 100 | – | – | –
18 | Cc1ccc2[nH]c(-c3ccc(NC(=O)c4ccc(Cl)cc4)cc3)nc2c1 [Compound 6e, N-(4-(5-Methyl-1H-benzo[d]imidazol-2-yl)phenyl)-4-chlorobenzamide] | > 100 | > 100 | > 300 | – | –
19 | COc1cc(C(=O)Nc2ccc(-c3nc4cc(C)c(C)cc4[nH]3)cc2)cc(OC)c1OC [Compound 7c, N-(4-(5,6-Dimethyl-1H-benzo[d]imidazol-2-yl)phenyl)-3,4,5-trimethoxybenzamide] | > 100 | 0.3 | 272 to 274 | – | almost comparable to the untreated but infected ones
20 | Cc1cc2nc(-c3ccc(NC(=O)c4ccc([N+](=O)[O-])cc4)cc3)[nH]c2cc1C [Compound 7d, N-(4-(5,6-Dimethyl-1H-benzo[d]imidazol-2-yl)phenyl)-4-nitrobenzamide] | > 100 | > 100 | > 300 | – | –
21 | Cc1cc2nc(-c3ccc(NC(=O)c4ccc(Cl)cc4)cc3)[nH]c2cc1C [Compound 7e, N-(4-(5,6-Dimethyl-1H-benzo[d]imidazol-2-yl)phenyl)-4-chlorobenzamide] | > 100 | > 100 | > 300 | – | –
22 | C[C@@]1(O)[C@H](O)[C@@H](CO)O[C@H]1n1cnc2c(=O)[nH]c(N)nc21 [NM 108, 2′-C-methylguanosine, reference compound] | > 100 | 1.5 | – | – | –
23 | NC(=O)c1ncn([C@@H]2O[C@H](CO)[C@@H](O)[C@H]2O)n1 [Ribavirin, ribavirin, reference compound] | > 100 | 18 | – | – | –
